Results from PMC9496258, “Trace Immunosensing of Multiple Neonicotinoid Insecticides by a Novel Broad-Specific Antibody Obtained from a Rational Screening Strategy” (Biosensors, 2022).
In brackets after ≈: the same amount, converted by molar mass.

Legend:
mAb 1A5 = assay: icELISA with mAb 1A5 (hybridoma supernatant), coating antigen imidacloprid-OVA; type: binding, mouse; conditions: for CR: mAb 1A5, cross-reactivity relative to imidacloprid; for IC50: mAb 1A5, hybridoma supernatant, icELISA
Description: (§1) Procedures for the immunization, cell fusion and clone selection were similar to those described in our previous publications, and indirect non-competitive and competitive ELISAs were sequentially used for hybridoma screening. The generated mAb was purified by protein G from the ascitic fluid and then stored at −20 °C for further analysis. A mouse antibody isotyping kit was used to determine the isotypes of the mAbs.
(§2) Checkerboard titration was carried out by icELISAs with serial dilutions of the antibody and coating antigen (imidacloprid-OVA). […] The specificity and sensitivity were determined by icELISAs. Briefly, the mixture of standards with different concentrations and equal volume of antibody was added into the reaction wells of pre-coated plates. Standard curves were fitted into a four-parameter logarithmic equation: Y = A2 + [(A1 − A2)/1 + (X/X0)^p], and the half-maximal inhibitory concentration (IC50, defined as the assay sensitivity, was used to calculate cross-reactivity rate(CR).
(§3) Moreover, sensitivity (IC50) and CR to eight neonicotinoids were assessed by icELISAs.

mAb 4B1 = assay: icELISA with mAb 4B1 (hybridoma supernatant), coating antigen imidacloprid-OVA; type: binding, mouse; conditions: for CR: mAb 4B1, cross-reactivity relative to imidacloprid; for IC50: mAb 4B1, hybridoma supernatant, icELISA
Description: as §1, §2, §3

mAb 5C3 = assay: icELISA with mAb 5C3 (hybridoma supernatant), coating antigen imidacloprid-OVA; type: binding, mouse; conditions: for CR: mAb 5C3, cross-reactivity relative to imidacloprid; for IC50: mAb 5C3, hybridoma supernatant, icELISA
Description: as §1, §2, §3

mAb 6F11 = assay: icELISA with mAb 6F11 (hybridoma supernatant), coating antigen imidacloprid-OVA; type: binding, mouse; conditions: for CR: mAb 6F11, cross-reactivity relative to imidacloprid; for IC50: mAb 6F11, hybridoma supernatant, icELISA
Description: as §1, §2, §3

6F11-mAb = assay: icELISA with purified 6F11-mAb; type: binding, mouse; conditions: for CR / IC50: 6F11-mAb; for CR: cross-reactivity relative to imidacloprid; for IC50: imidacloprid-OVA 10 µg/mL; for recognition by the antibody (6F11): in words
Description: as §1, §2
(§4) Under the optimal working concentrations of 10 µg/mL for imidacloprid-OVA, icELISAs with high sensitivity to neonicotinoid pesticides and metabolites were established.

6F11-rAb [1] = assay: icELISA with full-length recombinant 6F11-rAb; type: binding, mouse; conditions: for CR: cross-reactivity relative to imidacloprid; for IC50: imidacloprid-OVA 10 µg/mL
Description: Transient production in the HEK 293F suspension cells was performed as described. Briefly, cells were prepared with viable cell density around 1.5 × 10^6 cells/mL and viability above 95 % in 180 mL serum-free culture medium in 500 mL Nunc Erlenmeyer flasks and incubated at 37 °C in 5% CO2 atmosphere and shaken at 130 rpm in an orbital shaker for 2 h. A total of 90 μg of the plasmids (VH:VL = 2:3) mixed with transfection reagent were pre-warmed for 15 min and then transiently transfected into HEK 293F. After 5 days of incubation, the supernatant was collected and purified by protein G. The size of the purified full-length rAb was identified by SDS-PAGE.
as §2, §4

6F11-rAb [2] = assay: GNIS (gold lateral-flow immunosensing strip) assay based on 6F11-rAb; type: binding, mouse; conditions: for limit detection of T-line disappearance (visual detection limit): normal visual detection; for IC50: with a strip reader
Text: The preparation method for the conjugate of rAb-gold nanoparticles was based on a previous report. A colloid gold lateral-flow immunosensing strip consisted of three pads (glass fiber membrane, NC membrane and absorption membrane) using a one-sided adhesive polyvinyl chloride sheet as a support. The prepared imidaclothiz-OVA conjugate and goat anti-mouse IgG antibody were immobilized onto the NC membrane as the test line (T line) and control line (C line), respectively. For analysis, standard solutions at different concentrations were added to the 96-well microtiter plate, and then the strip was inserted into the well. After 15 min, the signal was observed using a portable reader (Helmen, Suzhou, China). Standard curves were gained by plotting the signal ratio of the T line to the C line (T/C) against the analyte concentration, and they were also fitted into the four-parameter logarithmic equation.
The 6F11-rAb was used to establish a rapid and reliable GNIS assay, and the limit detection of T-line disappearance was 5 ng/mL for imidacloprid, clothianidin and imidaclothiz and over 100 ng/mL for thiacloprid, acetamiprid and nitenpyram, judged by normal visual detection (Figure 5). […] Therefore, imidacloprid, clothianidin and imidaclothiz, with better sensitivity, were further determined by spiking experiment.

[3] = test system: anti-imidacloprid monoclonal antibody; design: method as in PMID 31862564; conditions: anti-imidacloprid mAb, lateral-flow immunoassay; cited from earlier work
[4] = test system: positive hybridoma clones; assay: Dual-target icELISA hybridoma screening; type: binding, mouse; conditions: analyte at 1 µg/mL, nine clones
Description: as §1
After cell fusion and the primary screening by non-competitive ELISAs, 37 positive wells of hybridomas giving the absorbance values higher than 0.5 were picked out and filled with fresh culture medium. On the next day, they were quickly rechecked by icELISAs to qualitatively test the ability of recognizing both imidacloprid and acetamiprid. […] Therefore, the top four broad-specific clones were selected and screened with imidacloprid and acetamiprid until stable hybridoma lines were obtained. Then the culture supernatants were collected for characterization of the four kinds of broad-specific mAbs.

anti-imidaclothiz mAb = test system: anti-imidaclothiz mAb; design: method as in PMID 21299253; conditions: anti-imidaclothiz mAb-based ELISA; cited from earlier work

SMILES | CR (mAb 1A5) | IC50 (mAb 1A5) | CR (mAb 4B1) | IC50 (mAb 4B1) | CR (mAb 5C3) | IC50 (mAb 5C3) | CR (mAb 6F11) | IC50 (mAb 6F11) | CR (6F11-mAb) | IC50 (6F11-mAb) | CR (6F11-rAb [1]) | IC50 (6F11-rAb [1]) | limit detection of T-line disappearance (visual detection limit) (6F11-rAb [2]) | IC50 (6F11-rAb [2]) | also measured
O=[N+]([O-])/N=C1\NCCN1Cc1cnc(Cl)s1 [Imidaclothiz, imidaclothiz] | 126.7% | 0.90 ng/mL | 7.1% | 41.09 ng/mL | 8.6% | 2.79 ng/mL | 122.9% | 0.48 ng/mL | 115.1% | 0.23 ng/mL | 119.8% | 0.30 ng/mL | 5 ng/mL | 0.7 ng/mL (≈ 2.67 nM) | –
C/C(=N\C#N)N(C)Cc1ccc(Cl)nc1 [Acetamiprid, acetamiprid] | 2.6% | 43.34 ng/mL | 3.1% | 92.77 ng/mL | 0.4% | 58.52 ng/mL | 9.5% | 6.24 ng/mL | 4.5% | 5.92 ng/mL | 4.0% | 9.04 ng/mL | over 100 ng/mL | – | cross-reactivity [3]: 1.1%
CN1COCN(Cc2cnc(Cl)s2)/C1=N\[N+](=O)[O-] [Thiamethoxam, thiamethoxam] | <0.1% | >1000 ng/mL | <0.1% | >1000 ng/mL | <0.1% | >1000 ng/mL | <0.1% | >1000 ng/mL | <0.1% | >1000 ng/mL | <0.1% | >1000 ng/mL | – | – | CR (mAb 1A5; listed as thiamethoxam): without obvious CR; CR (mAb 4B1; listed as thiamethoxam): no CR; CR (mAb 5C3; listed as thiamethoxam): without obvious CR; CR (mAb 6F11; listed as thiamethoxam): without obvious CR; recognition by the antibody (6F11) (6F11-mAb): cannot recognize
O=[N+]([O-])/N=C1\NCOCN1Cc1cnc(Cl)s1 [N-desmethyl thiamethoxam] | – | – | – | – | – | – | – | – | 124.8% | 0.21 ng/mL | 67.8% | 0.53 ng/mL | – | – | recognition by the antibody (6F11) (6F11-mAb): very high affinity
CN/C(=N/CC1CCOC1)N[N+](=O)[O-] (centres unmarked) [Dinotefuran, dinotefuran] | <0.1% | >1000 ng/mL | <0.1% | >1000 ng/mL | <0.1% | >1000 ng/mL | <0.1% | >1000 ng/mL | <0.1% | >1000 ng/mL | <0.1% | >1000 ng/mL | – | – | CR (mAb 1A5; listed as dinotefuran): without obvious CR; CR (mAb 4B1; listed as dinotefuran): no CR; CR (mAb 5C3; listed as dinotefuran): without obvious CR; CR (mAb 6F11; listed as dinotefuran): without obvious CR
O=[N+]([O-])NC1=NCCN1Cc1ccc(Cl)nc1 [Imidacloprid, imidacloprid] | 100.0% | 1.14 ng/mL | 100.0% | 2.90 ng/mL | 100.0% | 0.24 ng/mL | 100.0% | 0.59 ng/mL | 100.0% | 0.27 ng/mL | 100.0% | 0.36 ng/mL | 5 ng/mL | 0.9 ng/mL (≈ 3.52 nM) | inhibition rate [4]: > 50%; cross-reactivity (anti-imidaclothiz mAb): 91.7%
N#C/N=C1\SCCN1Cc1ccc(Cl)nc1 [Thiacloprid, thiacloprid] | 2.7% | 42.91 ng/mL | 10.2% | 28.37 ng/mL | 1.8% | 13.39 ng/mL | 21.2% | 2.78 ng/mL | 20.6% | 1.30 ng/mL | 12.5% | 2.89 ng/mL | over 100 ng/mL | – | –
CN/C(=N\[N+](=O)[O-])NCc1cnc(Cl)s1 [Clothianidin, clothianidin] | 63.3% | 1.80 ng/mL | 4.9% | 59.41 ng/mL | 20.2% | 1.19 ng/mL | 41.3% | 1.43 ng/mL | 58.3% | 0.46 ng/mL | 41.7% | 0.86 ng/mL | 5 ng/mL | 0.5 ng/mL (≈ 2 nM) | cross-reactivity [3]: 4.1%
O=[N+]([O-])/C=C1\NCCN1Cc1ccc(Cl)nc1 [6-Cl-PMNI] | – | – | – | – | – | – | – | – | 132.9% | 0.20 ng/mL | 100.6% | 0.36 ng/mL | – | – | –
CCN(Cc1ccc(Cl)nc1)/C(=C/[N+](=O)[O-])NC [Nitenpyram, nitenpyram] | 3.7% | 31.19 ng/mL | <0.1% | >1000 ng/mL | 0.8% | 30.66 ng/mL | 8.2% | 7.16 ng/mL | 4.8% | 5.57 ng/mL | 5.1% | 7.07 ng/mL | over 100 ng/mL | – | CR (mAb 4B1; listed as nitenpyram): no CR
